Assay results: patent publication EP3495350B1, “COMPOUND INHIBITING FORMATION OF C-MYC/MAX/DNA COMPLEX” (National Cancer Center, priority 2016, dated 2018)

Columns and labels:
[1] = test system: MBT-2; assay: Cell based assay, cell viability (CellTiter-Glo), MBT-2; conditions: 72 hours, 0 to 2 µM; read-out: cell based assay cell line 1 MBT-2 IC50
Method: (§1) Commercially available bladder cancer cell lines were treated with trypsin-EDTA and seeded in each well of a 96 well plate, followed by incubation for 24 hours. After incubation, candidate compounds were added to each well at a final concentration of 0 to 2 µM. The compound-treated cells were further incubated for 72 hours. Cell viability was measured using an ATP detection method (CellTiter-Glo Luminescent Cell Viability Assay, Promega).
(§2) The selectivity of the compounds of the present disclosure to cancer cells was evaluated in the same manner as described in "2. Cell based assay".

[2] = test system: KU19-19; assay: Cell based assay, cell viability (CellTiter-Glo), KU19-19; conditions: Homo sapiens, KU-19-19; 72 hours, 0 to 2 µM; read-out: cell based assay cell line 2 KU19-19 IC50
Method: as §1, §2

[3] = test system: 253J; assay: Cell based assay, cell viability (CellTiter-Glo), 253J; conditions: Homo sapiens; 72 hours, 0 to 2 µM; read-out: cell based assay cell line 3 253J IC50
Method: as §1, §2

[4] = test system: UM-UC-3; assay: Cell based assay, cell viability (CellTiter-Glo), UM-UC-3; conditions: Homo sapiens, UMUC3; 72 hours, 0 to 2 µM; read-out: cell based assay cell line 4 UM-UC-3 IC50
Method: as §1, §2

Compound: CC(=O)c1c([S+]([O-])Cc2ccc(Cl)cc2)[nH]c2c(Br)ccc(Cl)c2c1=O (stereo not shown) [Compound 11, 3-acetyl-8-bromo-5-chloro-2-((4-chlorobenzyl)sulfinyl)quinolin-4(1H)-one]
- IC50 [1]: > 2000 nM
- IC50 [2]: > 2000 nM
- IC50 [3]: 1410 nM
- IC50 [4]: 1490 nM

Compound: CC(=O)c1c([S+]([O-])c2ccccc2)[nH]c2c(Br)ccc(Cl)c2c1=O (stereo not shown) [Compound 13, 3-acetyl-8-bromo-5-chloro-2-(phenylsulfinyl)quinolin-4(1H)-one]
- IC50 [1]: > 2000 nM
- IC50 [2]: > 2000 nM
- IC50 [3]: > 2000 nM
- IC50 [4]: > 2000 nM

Compound: COc1ccccc1[S+]([O-])c1[nH]c2c(Br)ccc(Cl)c2c(=O)c1C(C)=O (stereo not shown) [Compound 15, 3-acetyl-8-bromo-5-chloro-2-((2-methoxyphenyl)sulfinyl)quinolin-4(1H)-one]
- IC50 [1]: > 2000 nM
- IC50 [2]: 1910 nM
- IC50 [3]: > 2000 nM
- IC50 [4]: > 2000 nM

Compound: CC(=O)c1c([S+]([O-])c2ccc(Br)cc2)[nH]c2c(Br)ccc(Cl)c2c1=O (stereo not shown) [Compound 17, 3-acetyl-8-bromo-2-((4-bromophenyl)sulfinyl)-5-chloroquinolin-4(1H)-one]
- IC50 [1]: > 2000 nM
- IC50 [2]: > 2000 nM
- IC50 [3]: > 2000 nM
- IC50 [4]: > 2000 nM

Compound: CC(=O)c1c([S+]([O-])C(C)c2ccccc2)[nH]c2c(Br)ccc(Cl)c2c1=O (stereo not shown) [Compound 26, 3-acetyl-8-bromo-5-chloro-2-((1-phenylethyl)sulfinyl)quinolin-4(1H)-one]
- IC50 [1]: > 2000 nM
- IC50 [2]: > 2000 nM
- IC50 [3]: > 2000 nM
- IC50 [4]: > 2000 nM

Compound: CC(=O)c1c([S+]([O-])Cc2cccc(C#N)c2)[nH]c2c(Br)ccc(Cl)c2c1=O (stereo not shown) [Compound 28, 3-(((3-acetyl-8-bromo-5-chloro-4-oxo-1,4-dihydroquinolin-2-yl)sulfinyl)methyl)benzonitrile]
- IC50 [1]: 790 nM
- IC50 [2]: 1460 nM
- IC50 [3]: 740 nM
- IC50 [4]: 790 nM

Compound: CC(=O)c1c([S+]([O-])Cc2ccc(F)cc2F)[nH]c2c(Br)ccc(Cl)c2c1=O (stereo not shown) [Compound 29, 3-acetyl-8-bromo-5-chloro-2-((2,4-difluorobenzyl)sulfinyl)quinolin-4(1H)-one]
- IC50 [1]: 1200 nM
- IC50 [2]: 1680 nM
- IC50 [3]: 960 nM
- IC50 [4]: 1130 nM

Compound: CC(=O)c1c([S+]([O-])Cc2ccc(F)c(Cl)c2)[nH]c2c(Br)ccc(Cl)c2c1=O (stereo not shown) [Compound 31, 3-acetyl-8-bromo-5-chloro-2-((3-chloro-4-fluorobenzyl)sulfinyl)quinolin-4(1H)-one]
- IC50 [1]: 1280 nM
- IC50 [2]: 1450 nM
- IC50 [3]: 890 nM
- IC50 [4]: 1020 nM

Compound: CC(=O)c1c(S(=O)(=O)Cc2ccccc2)[nH]c2c(Br)ccc(Cl)c2c1=O [Compound 34, 3-acetyl-2-(benzylsulfonyl)-8-bromo-5-chloroquinolin-4(1H)-one]
- IC50 [1]: > 2000 nM
- IC50 [2]: > 2000 nM
- IC50 [3]: > 2000 nM
- IC50 [4]: > 2000 nM

Compound: CC(=O)c1c([S+]([O-])Cc2cc(Cl)ccc2Cl)[nH]c2c(Br)ccc(Cl)c2c1=O (stereo not shown) [Compound 44, 3-acetyl-8-bromo-5-chloro-2-((2,5-dichlorobenzyl)sulfinyl)quinolin-4(1H)-one]
- IC50 [1]: 1150 nM
- IC50 [2]: 1270 nM
- IC50 [3]: 1240 nM
- IC50 [4]: 970 nM

Compound: CC(=O)c1c([S+]([O-])Cc2cc(F)cc(F)c2)[nH]c2c(Br)ccc(Cl)c2c1=O (stereo not shown) [Compound 46, 3-acetyl-8-bromo-5-chloro-2-((3,5-difluorobenzyl)sulfinyl)quinolin-4(1H)-one]
- IC50 [1]: 1840 nM
- IC50 [2]: 1800 nM
- IC50 [3]: 1960 nM
- IC50 [4]: 1220 nM

Compound: CC(=O)c1c([S+]([O-])Cc2cccc(I)c2)[nH]c2c(Br)ccc(Cl)c2c1=O (stereo not shown) [Compound 48, 3-acetyl-8-bromo-5-chloro-2-((3-iodobenzyl)sulfinyl)quinolin-4(1H)-one]
- IC50 [1]: > 2000 nM
- IC50 [2]: > 2000 nM
- IC50 [3]: > 2000 nM
- IC50 [4]: 1820 nM

Compound: CC(=O)c1c([S+]([O-])Cc2cccc(F)c2)[nH]c2c(Br)ccc(Cl)c2c1=O (stereo not shown) [Compound 50, 3-acetyl-8-bromo-5-chloro-2-((3-fluorobenzyl)sulfinyl)quinolin-4(1H)-one]
- IC50 [1]: 1580 nM
- IC50 [2]: 1690 nM
- IC50 [3]: 1430 nM
- IC50 [4]: 1260 nM

Compound: CC(=O)c1c([S+]([O-])Cc2cc(C)on2)[nH]c2c(Br)ccc(Cl)c2c1=O (stereo not shown) [Compound 51, 3-acetyl-8-bromo-5-chloro-2-(((5-methylisoxazol-3-yl)methyl)sulfinyl)quinolin-4(1H)-one]
- IC50 [1]: 760 nM
- IC50 [2]: 1260 nM
- IC50 [3]: 1130 nM
- IC50 [4]: 630 nM

Compound: CC(=O)c1c([S+]([O-])Cc2ccccc2)nc2c(Br)ccc(Cl)c2c1O (stereo not shown) [Compound 53, 1-(2-(benzylsulfinyl)-8-bromo-5-chloro-4-hydroxyquinolin-3-yl)ethan-1-one]
- IC50 [1]: > 2000 nM
- IC50 [2]: > 2000 nM
- IC50 [3]: > 2000 nM
- IC50 [4]: > 2000 nM

Compound: COc1cccc(C[S+]([O-])c2[nH]c3c(Br)ccc(Cl)c3c(=O)c2C(C)=O)c1 (stereo not shown) [Compound 55, 3-acetyl-8-bromo-5-chloro-2-((3-methoxybenzyl)sulfinyl)quinolin-4(1H)-one]
- IC50 [1]: > 2000 nM
- IC50 [2]: 1380 nM
- IC50 [3]: 1330 nM
- IC50 [4]: 1580 nM

Compound: CC(=O)c1c([S+]([O-])Cc2ccc(SC(F)(F)F)cc2)[nH]c2c(Br)ccc(Cl)c2c1=O (stereo not shown) [Compound 56, 3-acetyl-8-bromo-5-chloro-2-((4-((trifluoromethyl)thio)benzyl)sulfinyl)quinolin-4(1H)-one]
- IC50 [1]: 1180 nM
- IC50 [2]: 940 nM
- IC50 [3]: 1110 nM
- IC50 [4]: 1250 nM

Compound: CC(=O)c1c([S+]([O-])Cc2ccc([N+](=O)[O-])cc2)[nH]c2c(Cl)ccc(Cl)c2c1=O (stereo not shown) [Compound 57, 3-acetyl-5,8-dichloro-2-((4-nitrobenzyl)sulfinyl)quinolin-4(1H)-one]
- IC50 [1]: > 2000 nM
- IC50 [2]: 1830 nM
- IC50 [3]: 1920 nM
- IC50 [4]: > 2000 nM

Compound: CC(=O)c1c([S+]([O-])Cc2ccccc2C#N)[nH]c2c(Br)ccc(Cl)c2c1=O (stereo not shown) [Compound 58, 2-(((3-acetyl-8-bromo-5-chloro-4-oxo-1,4-dihydroquinolin-2-yl)sulfinyl)methyl)benzonitrile]
- IC50 [1]: 860 nM
- IC50 [2]: 920 nM
- IC50 [3]: 920 nM
- IC50 [4]: 1220 nM

Compound: COc1cc(C[S+]([O-])c2[nH]c3c(Br)ccc(Cl)c3c(=O)c2C(C)=O)cc(OC)c1 (stereo not shown) [Compound 59, 3-acetyl-8-bromo-5-chloro-2-((3,5-dimethoxybenzyl)sulfinyl)quinolin-4(1H)-one]
- IC50 [1]: 1300 nM
- IC50 [2]: 1230 nM
- IC50 [3]: 1140 nM
- IC50 [4]: 1370 nM

Compound: CC(=O)c1c([S+]([O-])Cc2ccc(C(C)(C)C)cc2)[nH]c2c(Br)ccc(Cl)c2c1=O (stereo not shown) [Compound 60, 3-acetyl-8-bromo-2-((4-(tert-butyl)benzyl)sulfinyl)-5-chloroquinolin-4(1H)-one]
- IC50 [1]: > 2000 nM
- IC50 [2]: 1560 nM
- IC50 [3]: 1710 nM
- IC50 [4]: > 2000 nM

Compound: CC(=O)c1c([S+]([O-])Cc2ccc(C(=O)c3ccccc3)cc2)[nH]c2c(Br)ccc(Cl)c2c1=O (stereo not shown) [Compound 63, 3-acetyl-2-((4-benzoylbenzyl)sulfinyl)-8-bromo-5-chloroquinolin-4(1H)-one]
- IC50 [1]: > 2000 nM
- IC50 [2]: > 2000 nM
- IC50 [3]: > 2000 nM
- IC50 [4]: > 2000 nM

Compound: CC(=O)c1c([S+]([O-])Cc2ccc([S+]([O-])C(F)(F)F)cc2)[nH]c2c(Br)ccc(Cl)c2c1=O (stereo not shown) [Compound 64, 3-acetyl-8-bromo-5-chloro-2-((4-((trifluoromethyl)sulfinyl)benzyl)sulfinyl)quin olin-4(1H)-one]
- IC50 [1]: 840 nM
- IC50 [2]: 1410 nM
- IC50 [3]: 950 nM
- IC50 [4]: 1060 nM

Compound: CC(=O)c1c([S+]([O-])Cc2ccc(C(F)(F)F)cc2)[nH]c2c(Br)ccc(Cl)c2c1=O (stereo not shown) [Compound 70, 3-acetyl-8-bromo-5-chloro-2-((4-(trifluoromethyl)benzyl)sulfinyl)quinolin-4(1H)-one]
- IC50 [1]: 1330 nM
- IC50 [2]: 1750 nM
- IC50 [3]: 1040 nM
- IC50 [4]: 1260 nM

Compound: CC(=O)c1c([S+]([O-])Cc2ccc(OC(F)(F)F)cc2)[nH]c2c(Br)ccc(Cl)c2c1=O (stereo not shown) [Compound 71, 3-acetyl-8-bromo-5-chloro-2-((4-(trifluoromethoxy)benzyl)sulfinyl)quinolin-4(1H)-one]
- IC50 [1]: 1470 nM
- IC50 [2]: 1600 nM
- IC50 [3]: 1110 nM
- IC50 [4]: 1610 nM

Compound: CC(=O)c1c([S+]([O-])Cc2ccc(C(F)(F)F)o2)[nH]c2c(Br)ccc(Cl)c2c1=O (stereo not shown) [Compound 72, 3-acetyl-8-bromo-5-chloro-2-(((5-(trifluoromethyl)furan-2-yl)methyl)sulfinyl)quinolin-4(1H)-one]
- IC50 [1]: 1010 nM
- IC50 [2]: 1370 nM
- IC50 [3]: 830 nM
- IC50 [4]: 820 nM

Compound: CC(=O)c1c([S+]([O-])Cc2ccc(C#N)cc2)[nH]c2c(Br)ccc(Cl)c2c1=O (stereo not shown) [Compound 73, 4-(((3-acetyl-8-bromo-5-chloro-4-oxo-1,4-dihydroquinolin-2-yl)sulfinyl)methyl)benzonitrile]
- IC50 [1]: 1000 nM
- IC50 [2]: 2000 nM
- IC50 [3]: 1340 nM
- IC50 [4]: 1620 nM

Compound: CC(=O)c1c([S+]([O-])Cc2c(F)cccc2Cl)[nH]c2c(Br)ccc(Cl)c2c1=O (stereo not shown) [Compound 74, 3-acetyl-8-bromo-5-chloro-2-((2-chloro-6-fluorobenzyl)sulfinyl)quinolin-4(1H)-one]
- IC50 [1]: 1150 nM
- IC50 [2]: 1640 nM
- IC50 [3]: 810 nM
- IC50 [4]: 1540 nM
